Measured values as given in patent US4716222A, “Substrates for hydrolases” (Hoechst Aktiengesellschaft, priority 1984, dated 1987).

Test: Test paper moistened with a blood plasma solution
Conditions: paper impregnated with ethanol solution containing 0.01% substrate
Description: The crude product was purified on a chromatography column (stationary phase: silica gel; mobile phase: CHCl3 +glacial acetic acid 19:1).

Cc1ccc(S(=O)(=O)NCC(=O)N2CCC[C@H]2C(=O)N[C@@H](CCCNC(=N)N)C(=O)Oc2ccc3c(c2)oc2cc(=O)ccc-2[n+]3[O-])cc1 [Tos-Gly-Pro-Arg-resazurin]
coloration of test paper: immediate blue-violet coloration
